The record followed here is patent US11691992B2 (Anacor Pharmaceuticals, Inc., priority 2017, dated 2023).

Read-outs that look alike come from different tables or passages of the source.

Common to all, as to type: cell-based
The subject of experiment [1] is STIB719/ILRAD560 T. vivax (drug sensitive) strain. The experiment can be described thus: Ex vivo Alamar Blue 48 h drug sensitivity assay for T. vivax. Particulars: Trypanosoma vivax, ex vivo bloodstream forms from mouse, 45 hrs + 3 hrs resazurin, read-out: IC50: I Hypoxanthine Incorporation T. vivax STIB 719/ILRA D 560, 2 d. On the procedure: Example 109. Ex Vivo Alamar Blue 48 h Drug Sensitivity Assay for T. vivax
[…] Test compounds were prepared as 10 mg/mL DMSO stocks for each assay run. Compounds were assayed in at least three separate, independent test runs and an 11-point dilution curve was used to determine the IC50 values. Bloodstream form trypanosomes were propagated and harvested from a highly parasitemic mouse (via cardiac puncture) and were incubated with test compounds for 45 hrs at 37° C. in a humidified atmosphere containing 5% CO2, supported in HMI media containing 20% bovine serum. […] Plates were then read using a fluorescent plate reader (Spectramax, Gemini XS, Bucher Biotec, Basel, Switzerland) using an excitation wavelength of 536 nm and an emission wavelength of 588 nm. Data points were averaged to generate sigmoidal dose-response curves and IC50 values were determined using Softmax Pro 5.2 software.
For orientation: The colour change of resazurin is a common sign of viable cells or microbes.

Experiment [2] has as its system IL3000 T. congolense (drug sensitive) strain. The experiment can be described thus: In vitro Alamar Blue 72 h drug sensitivity assay for T. congolense. The method, boiled down:
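Bloodstream-form trypanosomes in HMI medium with 20% bovine serum, exposed to compound for 69 h at 34 °C, 5% CO2, then resazurin for 3 h more. Fluorescence read at 536/588 nm. IC50 from 11-point sigmoidal dose-response curves, at least three independent runs.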

The test system of experiment [3] is bloodstream forms of T. b. rhodesiense STIB 900. The experiment can be described thus: T. brucei rhodesiense STIB 900 growth inhibition assay. Particulars: Trypanosoma brucei, 72 h. A digest of the protocol: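 Bloodstream-form STIB 900 (10^4/well) were cultured in supplemented MEM with 15% horse serum and compound (90 to 0.123 μg/ml, 3-fold steps) for 72 h at 37 °C, 5% CO2. Viability was read by Alamar Blue fluorescence (ex 536/em 588 nm) after a further 2-4 h.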

In experiment [4] the test system is L. infantum MHOM/MA(BE)/67 amastigotes in primary peritoneal mouse macrophages. Put plainly: Leishmania infantum intracellular amastigote assay in mouse macrophages. Conditions: Macrophage, 120 h. A digest of the protocol:
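Amastigotes harvested from infected hamster spleen infected primary peritoneal mouse macrophages (5×10^5 amastigotes/well, 2 h, 37 °C). Compounds then present 5 d at 37 °C, 5% CO2. Parasite burden counted by microscopy after Giemsa staining, as % of untreated controls; IC50 from sigmoidal variable-slope fit.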

Experiment [5] relates to Trypanosoma brucei rhodesiense STIB 900 strain. The experiment can be described thus: Trypanosoma brucei rhodesiense STIB 900 screening assay. Particulars: STIB 900 bloodstream forms, 72 h, Alamar Blue, protocol of Example 114, read-out: Swiss TPH T b rhodesiense IC50. The procedure:
Example 114. Trypanosoma brucei rhodesiense STIB 900 Screening Assay Procedure
The Trypanosoma brucei rhodesiense STIB 900 strain was isolated in 1982 from a human patient in Tanzania and after several mouse passages cloned and adapted to axenic culture conditions (Baltz, et al., EMBO Journal 4: 1273-1277 (1985); Thuita, et al., Acta Tropica 108: 6-10 (2008)). Minimum Essential Medium (50 μL) supplemented with 25 mM HEPES, 1 g/L additional glucose, 1% MEM non-essential amino acids (100×), 0.2 mM 2-mercaptoethanol, 1 mM Na-pyruvate and 15% heat inactivated horse serum was added to each well of a 96-well microtiter plate. Serial drug dilutions of seven 3-fold steps covering a range from 90 to 0.123 μg/mL were prepared. Then 10^4 bloodstream forms of T. b. rhodesiense STIB 900 in 50 μL was added to each well and the plate incubated at 37° C. under a 5% CO2 atmosphere for 72 h. 10 μL Alamar Blue (resazurin, 12.5 mg in 100 mL double-distilled water) was then added to each well and incubation continued for a further 2-4 h (Raz, et al., Acta Tropica 68: 139-47 (1997)). Then the plates were read with a Spectramax Gemini XS microplate fluorometer (Molecular Devices Corporation, Sunnyvale, Calif., USA) using an excitation wavelength of 536 nm and an emission wavelength of 588 nm. Data were transferred into the graphic program Softmax Pro (Molecular Devices), which calculated IC50 values.

Experiment [6] deals with bloodstream-form trypanosome T. brucei brucei 427 strain. The experiment can be described thus: Trypanosoma brucei brucei high-throughput screening assay (resazurin). On the procedure: Example 105. Trypanosoma brucei brucei High-Throughput Screening Assay Procedure
All experiments were conducted with the bloodstream-form trypanosome T. brucei brucei 427 strain obtained from Seattle Biomedical Research Institute (Seattle, Wash.). Parasites were cultured in T-25 vented cap flasks and kept in humidified incubators at 37° C. and 5% CO2. The parasite culture media was complete HMI-9 medium containing 10% FBS, 10% Serum Plus medium and penicillin/streptomycin. To ensure log growth phase, trypanosomes were sub-cultured at appropriate dilutions every 2-3 days. Approximately 50 microliters of log phase cultures were diluted 1:10 in HMI-9 and 10 μL of the diluted culture was removed and counted using a hemocytometer to determine parasite concentration. Parasites were diluted by addition of an appropriate volume of HMI-9 to achieve a final parasite concentration of 2×10^5/mL. Compounds of the invention to be tested were serially diluted in DMSO and 0.5 μL added to 49.5 μL HMI-9 in triplicate 96-well plates using a Biomek NX liquid handler. Parasites from the diluted stock were added to each well (50 μL) using a Multidrop 384 dispenser to give a final concentration of 1.0×10^5/ml parasites in […] for DMSO. Trypanosomes were incubated with compounds for 72 hrs at 37° C. with 5% CO2. Resazurin (20 μL of 12.5 mg/ml stock) from Sigma-Aldrich was added to each well and plates were incubated for an additional 2-4 hrs. Assay plates were read using an EnVision plate reader at an excitation wavelength of 544 nm and emission of 590 nm. Triplicate data points were averaged to generate sigmoidal dose response curve and determine IC50 values using XLfit curve fitting software from IDBS (Guildford, UK).

The mark [7] stands for this setting: Trypanosoma congolense; bloodstream form, 69 h + 3 h resazurin, 34° C.; classes A-C; read-out: IC50: I Org. Growth T. congolense IL-3000, 3 d.
Setting [8] is: bloodstream forms, Alamar Blue, protocol of Example 110, read-out: IC50: I Org. Growth T. brucei rhodesiense STIB 900, 3 d.
Setting [9] is: amastigotes in primary peritoneal mouse macrophages, 5 d, Giemsa staining, read-out: Inhibition of Organism Growth in Leishmania infantum MHOM/MA/BE/67, 5 d.
Setting [10] is: bloodstream form, 72 hrs incubation, resazurin, read-out: IC50: I Org. Growth T. brucei brucei SBRI 427, 3 d.
Setting [11] is: read-out: IC50: I Org. Growth T. brucei rhodesiense STIB 900, 3 d [uM].
[12] abbreviates: read-out: Inhibition of Organism Growth in Leishmania infantum MHOM/MA/BE/67, 5 d [uM].
Setting [13] is: 72 h, read-out: IC50: I Org. Growth T. brucei brucei SBRI 427, 3 d [uM].
Where [14] appears, read: Trypanosoma congolense; read-out: inhibition of T. congolense IL-3000 growth at a concentration of 1.0 μM (classes D, E).

Turning to `Cc1c(C(=O)Nc2ccc3c(c2)B(O)OC3)nnn1-c1cccc(C(F)(F)F)n1` [Example 48, N-(1-hydroxy-1,3-dihydrobenzo[c][1,2]oxaborol-6-yl)-5-methyl-1-(6-(trifluoromethyl)pyridin-2-yl)-1H-1,2,3-triazole-4-carboxamide], the IC50 in experiment [1] fell in the range of 0.201 to 0.5 µM; in experiment [2] (setting [7]) it was 0.1 to 0.3 µM.
Taken in the same sequence, the figures for `COCc1c(C(=O)Nc2ccc3c(c2)B(O)OC3)nnn1-c1ccccn1` [Example 53, N-(1-hydroxy-1,3-dihydrobenzo[c][1,2]oxaborol-6-yl)-5-(methoxymethyl)-1-(pyridin-2-yl)-1H-1,2,3-triazole-4-carboxamide] were under 0.2 µM and under 0.1 µM.
For `O=C(Nc1ccc2c(c1)B(O)OC2)c1nnn(-c2ccccn2)c1C1CC1` [Example 54, 5-cyclopropyl-N-(1-hydroxy-1,3-dihydrobenzo[c][1,2]oxaborol-6-yl)-1-(pyridin-2-yl)-1H-1,2,3-triazole-4-carboxamide], the IC50 in experiment [1] was 0.201 to 0.5 µM; in experiment [2] (setting [7]), under 0.1 µM.
Regarding `O=C(Nc1ccc2c(c1)B(O)OC2)c1nnn(-c2ccccn2)c1CO` [Example 55, N-(1-hydroxy-1,3-dihydrobenzo[c][1,2]oxaborol-6-yl)-5-(hydroxymethyl)-1-(pyridin-2-yl)-1H-1,2,3-triazole-4-carboxamide], the IC50 in experiment [1] was under 0.2 µM; in experiment [2] (setting [7]) it was under 0.1 µM.
For `O=C(Nc1ccc2c(c1)B(O)OC2)c1nnn(-c2ccccn2)c1CC(F)(F)F` [Example 56, N-(1-hydroxy-1,3-dihydrobenzo[c][1,2]oxaborol-6-yl)-1-(pyridin-2-yl)-5-(2,2,2-trifluoroethyl)-1H-1,2,3-triazole-4-carboxamide] the same measures were 0.201 to 0.5 µM and 0.1 to 0.3 µM.
Consider `O=C(Nc1ccc2c(c1)B(O)OC2)c1cn(-c2ncccc2Cl)nn1` [Example 58, 1-(3-Chloropyridin-2-yl)-N-(1-hydroxy-1,3-dihydrobenzo[c][1,2]oxaborol-6-yl)-1H-1,2,3-triazole-4-carboxamide], for which the IC50 in experiment [3] (setting [8]) is under 0.1 µM; in experiment [1] it was under 0.2 µM; in experiment [4] (setting [9]), 3 to 19.9 µM; in experiment [5], under 0.1 µM; in experiment [2] (setting [7]), under 0.1 µM.
Turning to `O=C(Nc1ccc2c(c1)B(O)OC2)c1cn(-c2ccc(Cl)cn2)nn1` [Example 59, 1-(5-Chloropyridin-2-yl)-N-(1-hydroxy-1,3-dihydrobenzo[c][1,2]oxaborol-6-yl)-1H-1,2,3-triazole-4-carboxamide], the IC50 was 0.1 to 0.3 µM in experiment [3] (setting [8]); 0.201 to 0.5 µM in experiment [1]; 3 to 19.9 µM in experiment [4] (setting [9]); under 0.1 µM in experiment [5]; under 0.1 µM in experiment [2] (setting [7]).
For `CC1(C)OB(O)c2cc(NC(=O)c3cn(-c4ccccn4)nn3)ccc21` [Example 62, N-(1-hydroxy-3,3-dimethyl-1,3-dihydrobenzo[c][1,2]oxaborol-6-yl)-1-(pyridin-2-yl)-1H-1,2,3-triazole-4-carboxamide], the IC50 was in the range of 0.31 to 10 µM in experiment [3] (setting [8]); 0.51 to 10 µM in experiment [1]; 20 to 100 µM in experiment [4] (setting [9]); 0.26 to 2 µM in experiment [5]; 0.31 to 100 µM in experiment [2] (setting [7]).
As for `Cn1nc(C(=O)Nc2ccc3c(c2)B(O)OC3)nc1-c1ccccn1` [Example 80, N-(1-hydroxy-1,3-dihydrobenzo[c][1,2]oxaborol-6-yl)-1-methyl-5-(pyridin-2-yl)-1H-1,2,4-triazole-3-carboxamide], the IC50 was 0.1 to 0.3 µM in experiment [3] (setting [8]), under 3 µM in experiment [4] (setting [9]), 0.1 to 0.3 µM in experiment [2] (setting [7]) and under 0.075 µM in experiment [6] (setting [10]).
As for `O=C(Nc1ccc2c(c1)B(O)OC2)c1nc(-c2ccccn2)n[nH]1` [Example 94, N-(1-hydroxy-1,3-dihydrobenzo[c][1,2]oxaborol-6-yl)-3-(pyridin-2-yl)-1H-1,2,4-triazole-5-carboxamide], the figures for the IC50 in experiment [3] (setting [11]), in experiment [4] (setting [12]) and in experiment [6] (setting [13]) were under 0.1 µM, 3 to 19.9 µM and under 0.075 µM, respectively. For the same compound, the inhibition at 1 µM in experiment [2] (Trypanosoma congolense, read-out: inhibition of T. congolense IL-3000 growth at a concentration of 1.0 μM (classes D, E)) is over 75%.
Take `Cn1nc(-c2ccc(F)cc2)nc1C(=O)Nc1ccc2c(c1)B(O)OC2` [Example 97, 3-(4-fluorophenyl)-N-(1-hydroxy-1,3-dihydrobenzo[c][1,2]oxaborol-6-yl)-1-methyl-1H-1,2,4-triazole-5-carboxamide]: in experiment [2] (setting [14]), the inhibition at 1 µM was under 75%. For the same compound, the IC50 in experiment [6] (setting [10]) was in the range of 0.151 to 10 µM.
Take `O=C(Nc1ccc2c(c1)B(O)OC2)c1nc(-c2ccc(F)cc2)n[nH]1` [Example 99, 3-(4-Fluorophenyl)-N-(1-hydroxy-1,3-dihydrobenzo[c][1,2]oxaborol-6-yl)-1H-1,2,4-triazole-5-carboxamide]: the results for the IC50 in experiment [3] (setting [11]), in experiment [4] (setting [12]) and in experiment [6] (setting [13]) were 0.1 to 0.3 µM, under 3 µM and under 0.075 µM, respectively.
As to `O=C(Nc1ccc2c(c1)B(O)OC2)c1nc(-c2ccccc2)n[nH]1` [Example 101, N-(1-hydroxy-1,3-dihydrobenzo[c][1,2]oxaborol-6-yl)-3-phenyl-1H-1,2,4-triazole-5-carboxamide], the inhibition at 1 µM in experiment [2] (setting [14]) was over 75%. Also, the IC50 in experiment [6] (setting [10]) was 0.075 to 0.15 µM.
As for `Cn1nc(C(=O)Nc2ccc3c(c2)B(O)OC3)nc1-c1ccccc1` [Example 102, N-(1-Hydroxy-1,3-dihydrobenzo[c][1,2]oxaborol-6-yl)-1-methyl-5-phenyl-1H-1,2,4-triazole-3-carboxamide], the IC50 was under 0.1 µM in experiment [3] (setting [8]), under 3 µM in experiment [4] (setting [9]) and 0.075 to 0.15 µM in experiment [6] (setting [10]).
